Measured values taken from patent US6077519A, “Methods for isolation and use of T cell epitopes eluted from viable cells in vaccines for treating cancer patients” (University of Pittsburgh, priority 1997, dated 2000).
Entries after “also recorded” stand apart in the source; their conditions may differ. Ends that are not written are not given here.

B1: recombinant murine interleukin 12 (protein, UniProt P43431 23-215; P43432 23-335, looked up)
Interleukin-12 subunit alpha: RVIPVSGPARCLSQSRNLLKTTDDMVKTAREKLKHYSCTAEDIDHEDITRDQTSTLKTCLPLELHKNESCLATRETSSTTRGSCLPPQKTSLMMTLCLGSIYEDLKMYQTEFQAINAALQNHNHQQIILDKGMLVAIDELMQSLNHNGETLRQKPPVGEADPYRVKMKLCILLHAFSTRVVTINRVMGYLSSA
Interleukin-12 subunit beta: MWELEKDVYVVEVDWTPDAPGETVNLTCDTPEEDDITWTSDQRHGVIGSGKTLTITVKEFLDAGQYTCHKGGETLSHSHLLLHKKENGIWSTEILKNFKNKTFLKCEAPNYSGRFTCSWLVQRNMDLKFNIKSSSSSPDSRAVTCGMASLSAEKVTLDQRDYEKYSVSCQEDVTCPTAEETLPIELALEARQQNKYENYSTSFFIRDIIKPDPPKNLQMKPLKNSQVEVSWEYPDSWSTPHSYFSLKFFVRIQRKKEKMKETEEGCNQKGAFLVEKTSTEVQCKGGNVCVQAQDRYYNSSCSKWACVPCRVRS

Experiments:
[1] = system: Mel 624; test: induction of anti-melanoma CTL from normal donor PBMC by peptide-pulsed autologous DC, lysis of Mel 624; assay type: cell-based, human; details: for Normal PBL Response (responders/donors): lysis of Mel 624 >20% at E:T 10:1, >80% inhibited by BB7.2; for lysis of Mel 624 by induced anti-melanoma CTL: E:T 10:1, normal donors; for Peak week of CTL reactivity, Normal PBL / number of stimulations to induce anti-melanoma CTL: normal donors
Experimental: Peripheral blood mononuclear cells ("PBMC") were obtained after density centrifugation on Ficoll-Hypaque gradients per the manufacturer's protocol (LSM, Organon-Teknika, Durham, N.C.). […] Non-adherent cells were frozen in liquid nitrogen in 90% fetal bovine serum/10% DMSO and were retained as T cell enriched responder populations. Plastic adherent cells were cultured for 5-7 days in AIM-V medium supplemented with 1000 U rIL-4/ml+1000 U rGM-CSF/ml at 37° C., 5% CO2 and served as the source of autologous dendritic cells. No medium was added or removed during this culture period. […] Gradient interface cells were harvested, washed with HBSS, and used in phenotypic and functional assays, as outlined below. Cells generated in this way were determined to be greater than 90% DC based on morphology and the expression of a CD1a+, CD1b+, CD1c+, CD3-, CD14-, CD16-, CD20-, CD40+, CD80+, CD83+, CD86+, MHC class II+phenotype assessed by flow cytometry.
(§1) Plastic non-adherent DC (1-2×10^6) were harvested from IL-4+GM-CSF cultures on days 7, 14, 21, and 28, and washed twice with HBSS. […] Peptide-pulsing (10 μM final peptide concentration) was allowed to proceed for 2 hours at 37° C., at which time, the cells were washed twice with HBSS, resuspended in 1 ml of AIM-V and irradiated (2500 rad) using a cesium source. Day 7 peptide-pulsed DC were used to "prime" freshly-thawed, autologous PBMC (plastic adherent depleted) responders at a 20:1 responder-to-stimulator ratio. Responding T cells were restimulated weekly (for 4 weeks) using irradiated, peptide-pulsed autologous DC at a 20:1 responder-to-restimulator ratio in AIM-V medium containing 60 IU/ml rhIL-2 (Chiron, Emeryville, Calif.).
(§2) Four hour chromium release assays were performed as described previously. Target cells were labeled with 100 μCi (Na2^51 CrO4, Dupont-New England Nuclear, Bedford, Mass.) at 37° C. for 1-2 hours prior to being washed three times with HBSS. 10^4 51 Cr-labeled cells were added to each target well±effector cells for 4 h, 37° C., 5% CO2 in a total volume of 200 μl.
PBMC responder T cells derived from normal donors (n=12) were repetitively stimulated weekly for 1-4 weeks with irradiated, autologous cultured dendritic cells pre-pulsed with either no peptide or individually pulsed with the previously identified, HLA-A2-presented melanoma peptides listed in Table 9, below.
Autologous, cultured d7 IL-4+GM-CSF PB-DC were pulsed with the indicated peptides for 2h at room temperature prior to washing and use as stimulators for CTL induction in vitro. […] 12 HLA-A2+ normal donors and 10 HLA-A2+ patients with metastatic melanoma were screened. […] Peak week of CTL reactivity is noted in parentheses.

[2] = system: Mel 624; test: induction of anti-melanoma CTL from melanoma patient PBMC by peptide-pulsed autologous DC, lysis of Mel 624; assay type: cell-based, human; details: for Patient PBL Response (responders/patients): lysis of Mel 624 >20% at E:T 10:1, >80% inhibited by BB7.2
Text: Heparinized peripheral blood was obtained by venipuncture from 15 HLA-A2^+ normal donors and 10 HLA-A2^+ donors with AJCC Stage III or IV melanoma treated at the University of Pittsburgh Cancer Institute/University of Pittsburgh School of Medicine. Peripheral blood mononuclear cells ("PBMC") were obtained after density centrifugation on Ficoll-Hypaque gradients per the manufacturer's protocol (LSM, Organon-Teknika, Durham, N.C.). […] Non-adherent cells were frozen in liquid nitrogen in 90% fetal bovine serum/10% DMSO and were retained as T cell enriched responder populations. Plastic adherent cells were cultured for 5-7 days in AIM-V medium supplemented with 1000 U rIL-4/ml+1000 U rGM-CSF/ml at 37° C., 5% CO2 and served as the source of autologous dendritic cells. No medium was added or removed during this culture period. […] Gradient interface cells were harvested, washed with HBSS, and used in phenotypic and functional assays, as outlined below. Cells generated in this way were determined to be greater than 90% DC based on morphology and the expression of a CD1a+, CD1b+, CD1c+, CD3-, CD14-, CD16-, CD20-, CD40+, CD80+, CD83+, CD86+, MHC class II+phenotype assessed by flow cytometry.
as §1, §2
Autologous, cultured d7 IL-4+GM-CSF PB-DC were pulsed with the indicated peptides for 2h at room temperature prior to washing and use as stimulators for CTL induction in vitro. […] 12 HLA-A2+ normal donors and 10 HLA-A2+ patients with metastatic melanoma were screened.
In parallel experiments, PBMC derived from 10 patients diagnosed with AJCC stage III or IV melanoma were stimulated with autologous DC pulsed with these same series of peptides.

[3] = system: GL1 CTL; assay type: cell-based, human
[4] = biological target: T1, HLA-A2 (Homo sapiens, UniProt P04439); test: HLA-A2 stabilization assay on T2 cells; assay type: binding; details: MA2.1
T1 construct: peptide stabilization read with MA2.1 by flow cytometry
T1 sequence (P04439 25-365): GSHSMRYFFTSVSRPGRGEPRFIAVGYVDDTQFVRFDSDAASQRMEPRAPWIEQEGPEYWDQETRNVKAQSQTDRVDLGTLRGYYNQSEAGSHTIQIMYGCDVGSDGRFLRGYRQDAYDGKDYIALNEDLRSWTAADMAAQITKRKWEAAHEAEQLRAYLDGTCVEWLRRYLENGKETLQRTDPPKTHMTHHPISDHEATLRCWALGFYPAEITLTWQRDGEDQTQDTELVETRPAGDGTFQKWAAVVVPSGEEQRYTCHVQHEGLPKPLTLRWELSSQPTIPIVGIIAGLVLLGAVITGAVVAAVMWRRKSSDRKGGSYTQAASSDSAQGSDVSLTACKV
T1 sequence (P61769 21-119 partner): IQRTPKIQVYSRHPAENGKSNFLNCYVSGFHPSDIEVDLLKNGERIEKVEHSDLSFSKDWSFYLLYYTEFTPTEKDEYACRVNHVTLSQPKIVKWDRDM

[5] = biological target: T1, HLA-A2; details: reported by Cox et al.; cited from earlier work
[6] = system: T2 target cells; test: CTL lysis of p939-pulsed T2 target cells; assay type: cell-based, human; details: without exogenous β2 -m and MA2.1
Experimental: (§3) Peptide loading was facilitated by the presence of the β2 -m and MA2.1 reagents as described by Zeh, H. J., et al., Hum. […] The cells were then incubated for 2 hours at room temperature.

[7] = system: A42-clone; details: read-out: half-maximal sensitization for lysis, T2, E:T 10:1
Experimental: as §3

[8] = system: TIL 5403; details: TIL 5403, data not shown
[9] = system: TIL 1235; details: TIL 1235, data not shown
[10] = system: CTL clone A42; details: CTL clone A42, data not shown
[11] = system: MCA205 fibrosarcoma; test: in vivo therapy of established MCA205 tumors in C57BL/6 mice; set-up: species or system mouse; details: day 4 (but not day 8) tumor models
Experimental: Before being used in vaccines, DC were pulsed overnight with crude, unfractionated, acid-eluted peptides derived from relevant tumors or control syngeneic spleens. Peptide-pulsed DC were extensively washed and then irradiated (3,000 rads) before i.v. injection in the tail vein of tumor-bearing animals. In the fibrocarcinoma MCA205 and mammary adenocarcinoma TS/A tumor models, animals were injected three to four times, starting at day 4 or day 8 after tumor establishment and subsequently, every 4 days, with 3-5×10^5 DC pulsed with peptides. Alternatively, in the C3 tumor model, animals were injected on days 14, 21, and 28 after initial intradermal (i.d.) tumor inoculation.
1 million BM-DC were pulsed with peptides derived from 10^8 to 10^9 cells (tumor or spleen) in a total volume of 1-2 ml of DC media overnight at 37° C., 55 CO2. Splenocytes freshly harvested from B6 animals were used as a cellular source of irrelevant peptides.
Twice the minimal tumorigenic dose of tumor cells (2×10^5 MCA205, 10^5 TS/A, or 2×10^6 C3) were injected intradermally ("i.d.") in the right flank of mice. […] The mean tumor size was monitored biweekly. […]
50 μg of CTLA4-IgG1 was admixed with DC-MCA205 or DC-TS/A in vitro, and the mixture was then administered in the tail vein of tumor-bearing animals (three to four injections every 4 days). […] Depletion of CD4^+ and CD8^+ T cells was monitored by flow cytometry. […]

Row | Molecule | Normal PBL Response (responders/donors) [1] | Patient PBL Response (responders/patients) [2] | Peak week of CTL reactivity, Normal PBL [1] | HLA-A2 stabilization / binding [4] | Peak week of CTL reactivity, Patient PBL ([2]; melanoma patients) | other results
1 | MLLAVLYCL [Tyrosinase 1-9] | 1/12 | 0/10 | – | – | – | –
2 | Lys-Gly-Ile-Leu-Gly-Phe-Val-Phe--Thr-Leu-Thr-Val [Flu M1] | – | – | – | – | – | GL1 lysis of peptide-pulsed HLA-A2+ targets [3]: lysed
3 | YMDGTMSQV [Tyrosinase 368-376] | 7/12 | 6/10 | 3-4 wk | – | – | lysis of Mel 624 by induced anti-melanoma CTL [1]: greater than 20%; number of stimulations to induce anti-melanoma CTL [1]: 2-3 stimulations
4 | LLDGTATLRL [gp100 457-466] | 0/12 | 0/10 | – | – | – | –
5 | Asp-Gly-Leu-Ala-Pro-Pro-Gln-His-Leu-Ile-Arg (DGLAPPQHLIR) [p53 186-196] | – | – | – | stabilized HLA-A2 very poorly | – | –
6 | Tyr-Leu-Glu-Pro-Gly-Pro-Val-Thr-Ala [gp100 280-288] | 9/12 | 8/10 | 3-4 wk | comparable | 3-4 wk | lysis of Mel 624 by induced anti-melanoma CTL [1]: greater than 20%; number of stimulations to induce anti-melanoma CTL [1]: 2-3 stimulations; immunodominance by kinetics and magnitude of response ([2]; melanoma patients): immunodominant epitopes; binding to HLA-A2 [5]: intermediate-to-low affinity
7 | ILTVILGVL [p939] | 9/12 | 9/10 | 3-4 wk | less effective; also recorded: low affinity | 3-4 wk | CTL reactivity over background [6]: 5-10%; EC50 [7]: ~3 nM; recognition and lysis of peptide-pulsed T2 cells [8]: able to recognize and lyse T2 cells; lowest dose with peptide-specific release of interferon-γ [9]: 1 pM; lowest dose with peptide-specific release of interferon-γ [10]: 1 pM
8 | FLWGPRALV [MAGE-3] | 0/4 | 1/3 | – | – | 3 wk | –
9 | B1 | – | – | – | – | – | therapeutic effect alone [11]: beneficial therapeutic effect
